Source: paper PMC6556873, “Rapid Covalent-Probe Discovery by Electrophile-Fragment Screening” (Journal of the American Chemical Society, 2019)
Read-outs that look alike come from different tables or passages of the source.

Legend:
NUDT7 [1] = target: T1, NUDT7 (Homo sapiens, UniProt P0C024); assay: RapidFire MS acetyl-CoA hydrolysis, kobs vs [inhibitor]; type: biochemical
T1 construct: residues 14-235, E. coli, pNIC28-Bsa4, N-terminal His6 tag removed by TEV, construct 26672 Da

NUDT7 [2] = target: T1, NUDT7; assay: RapidFire MS acetyl-CoA hydrolysis assay; type: biochemical
NUDT7 [3] = target: T1, NUDT7; assay: RapidFire MS acetyl-CoA hydrolysis, kobs vs [inhibitor]; type: biochemical; conditions: covalent, inactivation constant KI from kinact/KI fit, 5 mM MgCl2, pH 7.5
OTUB2 (OTUB2A) [4] = target: T2, OTUB2 (OTUB2A) (Homo sapiens, UniProt Q96DC9); assay: intact protein LC/MS labeling; type: binding; conditions: covalent; 24 h, 4 °C
T2 construct: full length residues 1-234, E. coli BL21(DE3)-R3, His tag removed by TEV, construct 27312 Da
T2 sequence (Q96DC9 1-234): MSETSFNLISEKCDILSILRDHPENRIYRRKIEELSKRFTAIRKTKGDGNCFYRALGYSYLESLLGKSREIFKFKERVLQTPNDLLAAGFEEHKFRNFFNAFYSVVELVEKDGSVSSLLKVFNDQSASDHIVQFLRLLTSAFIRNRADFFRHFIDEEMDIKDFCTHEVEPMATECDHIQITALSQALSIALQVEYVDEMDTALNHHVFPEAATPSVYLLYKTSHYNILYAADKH

in vitro [5] = assay: in vitro; set-up: species or system HB2, HEK293; conditions: human, ccd841 cells
in vitro [6] = assay: in vitro; set-up: species or system CCD841, HEK293; conditions: human, hb2 cells, read-out: HB-2 Cells Viability (%)
NUDT7 [7] = target: T1, NUDT7; set-up: Intact protein LC/MS covalent labelling, fragments in pools of five, 200 uM each, 4 °C; conditions: 24 h, 4 °C, pool of five; 200 µM; covalent
PCAF = target: T3, PCAF (Homo sapiens, UniProt Q92831); set-up: Intact protein LC/MS covalent labelling, fragments in pools of five, 200 uM each, 4 °C; conditions: 24 h, 4 °C, pool of five; 200 µM; covalent
T3 construct: gene KAT2B

BSA = target: T4, BSA (Bos taurus, UniProt P02769); set-up: Intact protein LC/MS covalent labelling, fragments in pools of five, 200 uM each, 4 °C; conditions: 24 h, 4 °C, pool of five; 200 µM; covalent
T4 construct: gene ALB

OTUB2 (OTUB2A) [8] = target: T2, OTUB2 (OTUB2A); set-up: Intact protein LC/MS covalent labelling, fragments in pools of five, 200 uM each, 4 °C; conditions: 24 h, 4 °C, pool of five; 200 µM; covalent
in vitro [9] = assay: in vitro; set-up: species or system HB2, CCD841; conditions: human, hek293 cells
USP8 = target: T5, USP8 (Homo sapiens, UniProt P40818); assay: intact protein LC/MS labeling; type: binding; conditions: covalent; promiscuous compound; 24 h, 4 °C, 2 μM protein, pools of five, pH 7.5
T5 construct: residues 705-1081, E. coli, produced as NUDT7 (His tag removed by TEV), construct 44429 Da
T5 sequence (P40818 705-1081): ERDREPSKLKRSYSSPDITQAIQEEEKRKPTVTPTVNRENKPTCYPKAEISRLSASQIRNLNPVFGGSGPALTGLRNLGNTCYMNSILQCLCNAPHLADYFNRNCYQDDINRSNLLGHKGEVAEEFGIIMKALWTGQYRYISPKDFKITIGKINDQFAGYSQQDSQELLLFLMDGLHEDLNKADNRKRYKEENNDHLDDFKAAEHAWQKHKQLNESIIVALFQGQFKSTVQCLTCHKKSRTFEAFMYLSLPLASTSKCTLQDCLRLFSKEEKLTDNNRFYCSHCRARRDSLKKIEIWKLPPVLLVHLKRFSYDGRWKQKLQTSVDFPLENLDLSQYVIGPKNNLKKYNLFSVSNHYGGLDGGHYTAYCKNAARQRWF

NNMT (hNNMT) [10] = target: T6, NNMT (hNNMT) (Homo sapiens, UniProt P40261); set-up: Intact protein LC/MS covalent labelling, fragments in pools of five, 200 uM each, 4 °C; conditions: 24 h, 4 °C, pool of five; 200 µM; covalent
T6 construct: wild type, N-terminal His6 tag kept (no cleavage described), E. coli, construct 31248 Da
T6 sequence (P40261 1-264): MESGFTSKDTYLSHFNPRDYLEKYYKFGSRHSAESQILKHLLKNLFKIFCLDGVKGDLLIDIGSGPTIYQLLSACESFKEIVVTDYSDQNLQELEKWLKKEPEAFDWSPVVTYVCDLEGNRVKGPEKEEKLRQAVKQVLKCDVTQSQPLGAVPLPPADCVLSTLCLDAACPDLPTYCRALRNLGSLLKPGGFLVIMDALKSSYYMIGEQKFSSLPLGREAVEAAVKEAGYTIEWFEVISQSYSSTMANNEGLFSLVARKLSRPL

NNMT (hNNMT) [11] = target: T6, NNMT (hNNMT); assay: intact protein LC/MS labeling; type: binding; conditions: covalent; promiscuous compound; 24 h, 4 °C, 2 μM protein, pools of five, pH 7.5
NUDT7 [12] = target: T1, NUDT7; assay: X-ray cocrystal structure; type: binding; conditions: covalent; C73
NUDT7 [13] = target: T1, NUDT7; assay: intact protein LC/MS labeling; type: binding; conditions: covalent; 24 h, 4 °C, 2 μM protein, pools of five, pH 7.5
OTUB2 (OTUB2A) [14] = target: T2, OTUB2 (OTUB2A); assay: intact protein LC/MS labeling; type: binding; conditions: covalent; 24 h, 4 °C; remark: listed apart in the source
NUDT7 [15] = target: T1, NUDT7; assay: X-ray crystal structure, soak; conditions: noncovalent; putative substrate binding region
K-Ras^G12C = target: T7, K-Ras^G12C (Homo sapiens, UniProt P01116, G12C, species not given); assay: intact protein LC/MS labeling; type: binding; conditions: covalent; 24 h, 4 °C, 2 μM protein, pools of five, pH 8.0
T7 construct: gene KRAS; residues 1-169, recombinant, construct 19245 Da
T7 sequence (P01116 1-169 G12C): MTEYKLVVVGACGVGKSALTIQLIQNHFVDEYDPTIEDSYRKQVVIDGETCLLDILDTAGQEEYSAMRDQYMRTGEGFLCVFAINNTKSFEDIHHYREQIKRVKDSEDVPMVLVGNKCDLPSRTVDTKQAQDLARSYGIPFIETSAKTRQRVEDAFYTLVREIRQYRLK

T1 sequence (P0C024 14-235): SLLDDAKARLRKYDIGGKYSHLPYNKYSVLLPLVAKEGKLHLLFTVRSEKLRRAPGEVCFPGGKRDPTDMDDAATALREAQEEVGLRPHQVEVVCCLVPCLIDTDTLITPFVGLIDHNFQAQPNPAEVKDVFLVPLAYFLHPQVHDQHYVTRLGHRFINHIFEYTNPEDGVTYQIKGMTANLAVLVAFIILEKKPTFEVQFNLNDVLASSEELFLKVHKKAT
T3 sequence (Q92831 whole entry, the tested form may be a part): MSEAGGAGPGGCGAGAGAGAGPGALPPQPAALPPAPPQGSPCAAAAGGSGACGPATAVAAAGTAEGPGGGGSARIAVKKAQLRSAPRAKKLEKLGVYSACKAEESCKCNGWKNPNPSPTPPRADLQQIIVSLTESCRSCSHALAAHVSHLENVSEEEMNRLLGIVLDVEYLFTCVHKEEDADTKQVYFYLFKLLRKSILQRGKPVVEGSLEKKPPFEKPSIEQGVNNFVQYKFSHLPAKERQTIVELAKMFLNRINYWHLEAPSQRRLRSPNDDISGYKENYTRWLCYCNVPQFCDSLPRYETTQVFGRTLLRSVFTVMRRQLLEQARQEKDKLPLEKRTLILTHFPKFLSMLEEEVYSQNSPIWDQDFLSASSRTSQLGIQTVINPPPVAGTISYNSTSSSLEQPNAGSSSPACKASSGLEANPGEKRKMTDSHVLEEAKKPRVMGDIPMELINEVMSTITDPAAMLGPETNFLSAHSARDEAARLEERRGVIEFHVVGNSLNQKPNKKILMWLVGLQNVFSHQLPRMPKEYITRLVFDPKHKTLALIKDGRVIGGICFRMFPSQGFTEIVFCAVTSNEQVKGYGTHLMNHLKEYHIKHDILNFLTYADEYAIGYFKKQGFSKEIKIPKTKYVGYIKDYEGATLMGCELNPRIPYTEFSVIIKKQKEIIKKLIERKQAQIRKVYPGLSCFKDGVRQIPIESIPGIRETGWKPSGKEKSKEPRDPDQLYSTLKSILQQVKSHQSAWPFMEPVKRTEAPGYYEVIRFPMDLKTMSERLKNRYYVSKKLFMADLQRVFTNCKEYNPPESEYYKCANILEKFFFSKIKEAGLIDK
T4 sequence (P02769 whole entry, the tested form may be a part): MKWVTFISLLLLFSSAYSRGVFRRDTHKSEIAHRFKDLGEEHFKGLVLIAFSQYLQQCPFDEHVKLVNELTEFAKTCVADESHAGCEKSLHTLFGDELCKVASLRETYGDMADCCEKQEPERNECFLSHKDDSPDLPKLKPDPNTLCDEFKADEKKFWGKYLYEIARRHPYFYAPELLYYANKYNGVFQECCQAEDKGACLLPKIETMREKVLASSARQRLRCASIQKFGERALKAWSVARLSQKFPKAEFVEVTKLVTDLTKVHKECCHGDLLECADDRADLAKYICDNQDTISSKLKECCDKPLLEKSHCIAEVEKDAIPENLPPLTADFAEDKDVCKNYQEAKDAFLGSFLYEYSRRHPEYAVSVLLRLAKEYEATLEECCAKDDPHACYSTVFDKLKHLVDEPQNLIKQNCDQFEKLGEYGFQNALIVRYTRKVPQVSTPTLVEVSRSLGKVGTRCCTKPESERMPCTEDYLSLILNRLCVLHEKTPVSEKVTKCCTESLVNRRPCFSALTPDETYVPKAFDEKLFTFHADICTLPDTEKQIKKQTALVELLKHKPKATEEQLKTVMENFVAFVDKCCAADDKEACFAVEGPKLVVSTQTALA

SMILES	viability at 48 h, 10 µM (in vitro [5])	viability at 48 h, 10 µM (in vitro [6])	NUDT7 (NUDT7 [7])	PCAF (PCAF)	BSA (BSA)	OTUB2 (OTUB2 (OTUB2A) [8])	viability at 48 h, 10 µM (in vitro [9])	further results
O=C(Cc1cccc(C2CCCN2C(=O)CCl)c1)Nc1cccc(Cl)c1 (racemic) [NUDT7-COV-1]	–	–	–	–	–	–	–	kinact/KI (NUDT7 [1]): 757 M⁻¹ s⁻¹; IC50 (NUDT7 [2]): 1.1 µM; KI (inactivation) (NUDT7 [3]): 13.2 µM
O=C(CCl)NNC(=O)C(c1ccccc1)c1ccccc1 [OTUB2-COV-17]	–	–	–	–	–	–	–	% labeling at 100 μM (OTUB2 (OTUB2A) [4]): 100%
COc1ccc(C2CCCCCN2C(=O)CCl)cc1 (stereo not drawn) [PCM-0102558]	11%	27.4%	1	0	0	0	15.3%	kinact/KI (NUDT7 [1]): 233 M⁻¹ s⁻¹
O=C(CCl)Nc1nc(-c2cc(F)ccc2F)cs1 [PCM-0102496]	35.7%	3.9%	0.53	0	0	0	2.2%	% labeling at 200 μM (USP8): > 50%; NNMT (NNMT (hNNMT) [10]): 1; % labeling at 200 μM (NNMT (hNNMT) [11]): > 50%
O=C(CCl)NC1(c2ccc3c(c2)OCCO3)CCCC1 [PCM-0102951]	69.3%	72.7%	1	0	0	0	56.4%	X-ray cocrystal structure (NUDT7 [12]): cocrystal structures of compounds PCM-0102951, PCM-0102558, and PCM-0102716 bound to NUDT7
O=C(CCl)N1CCCC1c1ccc2c(c1)OCCCO2 (stereo not drawn) [PCM-0102512]	19.7%	8.3%	0.88	0	0	0	3.8%	% labeling at 200 μM (NUDT7 [13]): 88%
O=C(CCl)NNC(=O)C1CC1c1ccc(Cl)cc1 (stereo not drawn) [OTUB2-COV-22]	–	–	–	–	–	–	–	% labeling at 5 μM (OTUB2 (OTUB2A) [14]): 55%
O=C(Cc1cccc(O)c1)Nc1cccc(Cl)c1 [NUDT7-REV-1]	–	–	–	–	–	–	–	X-ray crystal structure, soak (NUDT7 [15]): soaked them into NUDT7 crystals, which yielded a structure in complex with compound NUDT7-REV-1
Cl.O=C(CCl)N1CCN(Cc2ccc(Cl)cc2)CC1 [PCM-0102818]	31.6%	8.2%	0	0	0	0.17	7.8%	% labeling at 200 μM (K-Ras^G12C): 63%; NNMT (NNMT (hNNMT) [10]): 0.14
COc1ccc(C2CCCN2C(=O)CCl)cc1 (stereo not drawn) [PCM-0102938]	24.3%	12%	1	0	0	0	6.4%	NNMT (NNMT (hNNMT) [10]): 0; % labeling at 200 μM (NUDT7 [13]): 100%
COc1cccc(C2CCCN2C(=O)CCl)c1 (racemic) [PCM-0102716]	34.4%	7.6%	0.68	0	0	0.09	3.6%	X-ray cocrystal structure (NUDT7 [12]): cocrystal structures of compounds PCM-0102951, PCM-0102558, and PCM-0102716 bound to NUDT7
